# Results published in patent US7041869B2, “Transgenic luciferase mouse” (Sloan-Kettering Institute for Cancer Research, priority 2002, dated 2006).
# Entries after “also recorded” stand apart in the source; their conditions may differ.
# Key:
# [1] = tested on: PDGF signaling in glial cell culture; details: previously demonstrated; cited from earlier work
# [2] = tested on: PDGF-driven gliomas; test: Elux bioluminescence imaging of PDGF-induced gliomas during treatment; type: in vivo, mice
# Procedure: As an illustration of the use of Elux in somatic cell gene transfer models, the inventors have generated gliomas in mice harboring the Elux transgene. The Elux transgenic line was crossed with the Ntv-a transgenic mouse line. These doubly transgenic mice were then infected at birth with RCAS-PDGF. The mice were injected intracranially with one microliter containing 10^4 DF-1 cells, a chicken fibroblast cell line that are infected with and producing the RCAS-PDGF virus. This vector encodes the PDGF B coding region downstream of the env gene and expressed from the LTR on a message that splices out the viral genes. The injection passed through the striatum, just anterior to the ventricle, until the tip of the needle just touches the skull base. The producer cells survived for only a few days within the parenchyma of the mouse brain and during this time they produced virus and infected adjacent cells expressing the receptor for RCAS, tv-a. The mice were then observed for the development of signs of intracranial pathology including weight loss, lethargy, and macrocephaly. These mice were analyzed for expression of luciferase by i.v. injection with luciferin and imaging for bioluminescence with a CCD camera as discussed in detail below.
# Animals were weighed prior to the acquisition session for proper dosage calculations. […] The solution was sterilized by filtration through 0.22 μm syringe filter. Individual dosages were drawn into sterile insulin syringes for each animal based on the body weight. Prior to the injection, individual syringes were kept in dark.
# Oxygen flow was turned on and set for 1 l/min flow. […] For the induction of anesthesia, the animal was placed into the induction chamber and general activity and respiration rate were monitored. […]
# Bioluminescent acquisition was performed according to the IVIS™ Imaging System (Xenogen). […] It was selected empirically, based on prior in vitro characterization of luminescence of transfected cells and the intensity of luminescence signal obtained from the current study. […]
compound,measurement,setting,value
Clc1ccc(Nc2nnc(Cc3ccncc3)c3ccccc23)cc1 [PTK787],effect on PDGF signaling in glial cell culture,[1],capable of reversing the effects of PDGF signaling
same,loss in light emission (bioluminescence),"[2]; Ntv-a/Elux bitransgenic mice with RCAS-PDGF gliomas, 25 mg/kg i.p. daily, in 24–36 hours",50%
same,relative falloff of light production across tumors of various light outputs,"[2]; four consecutive mice with PDGF-induced gliomas, bioluminescence quantified daily during treatment",essentially parallel responses of decreases in light emission over time; also recorded: proportionally similar
